According to publication PMC6309520 (Cell chemical biology, 2018):

Biological target: T1, ARH3 (ADP-ribosyl hydrolase 3, ADPRHL2) (Homo sapiens, UniProt Q9NX46)
T1 sequence (Q9NX46 1-363): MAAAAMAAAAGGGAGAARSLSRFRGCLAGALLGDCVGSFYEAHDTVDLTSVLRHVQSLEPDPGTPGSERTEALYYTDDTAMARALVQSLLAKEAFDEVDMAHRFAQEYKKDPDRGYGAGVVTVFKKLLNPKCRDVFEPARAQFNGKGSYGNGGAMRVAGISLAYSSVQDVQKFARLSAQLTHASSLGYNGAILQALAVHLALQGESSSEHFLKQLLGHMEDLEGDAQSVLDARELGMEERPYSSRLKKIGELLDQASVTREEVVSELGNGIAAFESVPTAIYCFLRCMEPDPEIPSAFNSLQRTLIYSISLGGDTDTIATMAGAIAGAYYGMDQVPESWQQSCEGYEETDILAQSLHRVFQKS
Test: Michaelis-Menten kinetics
Type: biochemical

Km: 312 ± 30 µM
Compound: O=c1cc(C(F)(F)F)c2ccc(O[C@H]3O[C@H](COP(=O)(O)OP(=O)(O)OC[C@H]4O[C@@H](n5cnc6c(=O)[nH]cnc65)[C@H](O)[C@@H]4O)[C@@H](O)[C@H]3O)cc2o1 [compound 12, TFMU-IDPr]
